Experimental data published in ChEMBL document CHEMBL1201862, “PubChem BioAssay data set” (2004).
The source made the active and inactive calls.

How the values were obtained:
[1] = biological target: Glyceraldehyde-3-phosphate dehydrogenase (Homo sapiens, UniProt P04406)
[2] = HEp-2 cell cytotoxicity, dose response, cytotoxicity control for RSV inhibitor project, HTS (AID 2410); assay type: functional; details: human respiratory syncytial virus
[3] = inhibitors of firefly luciferase expression or activity, dose response, H4 neuroglioma cells, luminescence (AID 1990); assay type: functional, cell-based
[4] = Luminescence Cell-Based Dose Response HTS to Identify Inhibitors of 5'UTR Stem-Loop Driven Prion Protein mRNA Translation in H4 Neuroglioblastoma Cells. [Related pubchem assays: 1827 (Project Summary), 1813 (Primary HTS)]; assay type: functional
[5] = inhibitors of SNCA 5'UTR-driven reporter translation, confirmation, H4 neuroglioma cells, luminescence (AID 1988); assay type: functional, cell-based
[6] = growth suppression of PTEN-null colon cells, dose response, cell-based, HCT116 PTEN knockout (AID 1047); assay type: functional;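 note: HCT116 colon tumor cells with PTEN knocked out; cells exposed to compound for 60 hours before readout; potency for loss of cell viability measured by luminescence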
[7] = growth suppression of beta-catenin-knockout colon cells, dose response, cell-based, HCT116, human colon tumor (AID 1045); assay type: functional;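 note: HCT116 colon tumor cells with beta catenin knocked out; cells exposed to compound for 60 hours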
[8] = biological target: T1, Ubiquitin-conjugating enzyme E2 N (Homo sapiens, UniProt P61088); assay type: functional;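 note: Dose-response confirmation in a TR-FRET assay detecting UBC13-driven polyubiquitin chain formation, inhibition measured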
T1 sequence (P61088 whole entry): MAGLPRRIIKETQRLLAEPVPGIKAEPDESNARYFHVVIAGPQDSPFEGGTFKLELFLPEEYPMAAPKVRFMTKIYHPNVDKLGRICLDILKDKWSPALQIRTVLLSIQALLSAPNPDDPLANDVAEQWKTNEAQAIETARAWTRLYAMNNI

Cytochrome P450 3A4 = Cytochrome P450 3A4 (Homo sapiens, UniProt P08684);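 note: CYP3A4 tested as one member of a cytochrome P450 panel screen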
cells [9] = assay type: functional, cell-based
cells [10] = assay type: functional, cell-based; remark: listed apart in the source
Large T antigen = Large T antigen (Simian virus 40, UniProt P03070); assay type: functional, Betapolyomavirus macacae;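 note: Confirmatory-stage PubChem screen for compounds that inhibit SV40 T antigen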
[11] = biological target: T2, Rac GTPase-activating protein 1 (Homo sapiens, UniProt Q9H0H5); test: MgcRacGAP GTPase-activating activity inhibitors, confirmation, biochemical, ADP Hunter fluorescence, primary and confirmatory (AID 624330); assay type: functional
T2 sequence (Q9H0H5 whole entry): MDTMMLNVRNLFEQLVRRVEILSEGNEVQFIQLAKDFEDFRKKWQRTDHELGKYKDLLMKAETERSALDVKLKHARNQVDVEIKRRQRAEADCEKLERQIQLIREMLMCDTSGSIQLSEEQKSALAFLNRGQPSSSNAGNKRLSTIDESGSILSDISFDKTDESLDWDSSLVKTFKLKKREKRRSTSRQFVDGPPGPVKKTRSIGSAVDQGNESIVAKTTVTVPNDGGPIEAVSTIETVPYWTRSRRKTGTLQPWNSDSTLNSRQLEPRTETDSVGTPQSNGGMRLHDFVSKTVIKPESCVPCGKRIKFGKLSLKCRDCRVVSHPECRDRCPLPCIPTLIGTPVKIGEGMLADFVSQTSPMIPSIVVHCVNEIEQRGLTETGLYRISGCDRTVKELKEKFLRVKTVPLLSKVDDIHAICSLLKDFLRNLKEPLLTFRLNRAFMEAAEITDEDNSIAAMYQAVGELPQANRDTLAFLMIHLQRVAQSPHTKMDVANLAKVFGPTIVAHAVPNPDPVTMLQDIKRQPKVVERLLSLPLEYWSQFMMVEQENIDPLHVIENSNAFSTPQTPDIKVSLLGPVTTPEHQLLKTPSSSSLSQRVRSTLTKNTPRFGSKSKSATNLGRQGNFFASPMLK

Genome polyprotein = Genome polyprotein (dengue virus type 2, UniProt P29990); test: Dengue-2 NS5 methyltransferase inhibitors, primary screen, biochemical, confirmation dose response (AID 588689); assay type: functional
[12] = test system: Streptococcus sp. 'group A'; test: growth inhibition of control SK(-) GAS strain, dose response, counter-screen for streptokinase expression inhibitor project, luminescence, kanamycin, BacTiterGlo, confirmation (AID 1900); assay type: functional, organism-based
Streptokinase A = biological target: T3, Streptokinase A (Streptococcus pyogenes serotype M1, UniProt P10520); test: S. pyogenes streptokinase expression inhibitors, potency, dose response, plasminogen activation absorbance, OD405 (AID 1914); assay type: functional, Streptococcus pyogenes M1 GAS;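 note: secreted streptokinase activity via plasminogen activation per viability signal from cell pellet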
T3 sequence (P10520 whole entry): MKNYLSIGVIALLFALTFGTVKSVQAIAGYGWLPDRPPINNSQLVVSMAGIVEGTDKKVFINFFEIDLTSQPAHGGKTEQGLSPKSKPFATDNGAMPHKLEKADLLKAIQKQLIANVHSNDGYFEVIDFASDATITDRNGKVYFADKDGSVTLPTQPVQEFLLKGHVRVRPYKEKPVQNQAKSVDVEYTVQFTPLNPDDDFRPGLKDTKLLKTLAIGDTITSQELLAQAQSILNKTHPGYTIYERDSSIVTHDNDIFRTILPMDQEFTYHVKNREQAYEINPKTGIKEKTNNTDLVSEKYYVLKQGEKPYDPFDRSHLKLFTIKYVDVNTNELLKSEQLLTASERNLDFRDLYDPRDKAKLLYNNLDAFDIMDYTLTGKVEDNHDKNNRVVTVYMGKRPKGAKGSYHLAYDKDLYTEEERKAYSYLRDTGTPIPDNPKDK

Streptococcus = test: Group A Streptococcus viability loss, dose response, counter-screen for streptokinase expression inhibitor project, luminescence, BacTiterGlo (AID 1915); assay type: functional, organism-based;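 note: potency for reduction of bacterial viability or growth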
[13] = Shn3 3'UTR reporter inhibitors, dose response, cell-based, Clone20 osteoblasts, firefly luciferase, cherry-picked (AID 624132); assay type: functional;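 note: firefly luciferase luminescence from reporter carrying the Shn3 3'UTR in osteoblasts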
[14] = HepG2 cell cytotoxicity, dose response, cytotoxicity control for Shn3 inhibitor project, CellTiter-Glo, cherry-picked (AID 624134); assay type: functional, cell-based
[15] = control 3'UTR Renilla luciferase suppression, dose response, counter-screen for Shn3 inhibitor project, cell-based, Clone20-Shn3RL, cherry-picked (AID 624133); assay type: functional
[16] = biological target: T4, Corticotropin-releasing factor receptor 2/Corticotropin-releasing factor-binding protein (Homo sapiens, UniProt P24387+Q13324); test: activators of CRF receptor 2 with binding protein – uHTS hits, confirmation (AID 602473); assay type: functional; details: read-out: EC50_Mean
T4 sequence (Q13324 whole entry): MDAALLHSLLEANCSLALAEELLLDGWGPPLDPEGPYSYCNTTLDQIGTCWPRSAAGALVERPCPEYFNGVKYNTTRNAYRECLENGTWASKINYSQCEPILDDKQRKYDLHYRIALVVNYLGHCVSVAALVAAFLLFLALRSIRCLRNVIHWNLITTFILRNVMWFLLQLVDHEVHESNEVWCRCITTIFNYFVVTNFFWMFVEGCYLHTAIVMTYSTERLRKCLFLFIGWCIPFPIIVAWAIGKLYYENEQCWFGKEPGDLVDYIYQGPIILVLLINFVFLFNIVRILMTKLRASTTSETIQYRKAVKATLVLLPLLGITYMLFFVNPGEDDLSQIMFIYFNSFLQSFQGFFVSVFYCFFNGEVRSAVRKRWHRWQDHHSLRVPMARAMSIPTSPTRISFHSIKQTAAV
T4 sequence (P24387 whole entry): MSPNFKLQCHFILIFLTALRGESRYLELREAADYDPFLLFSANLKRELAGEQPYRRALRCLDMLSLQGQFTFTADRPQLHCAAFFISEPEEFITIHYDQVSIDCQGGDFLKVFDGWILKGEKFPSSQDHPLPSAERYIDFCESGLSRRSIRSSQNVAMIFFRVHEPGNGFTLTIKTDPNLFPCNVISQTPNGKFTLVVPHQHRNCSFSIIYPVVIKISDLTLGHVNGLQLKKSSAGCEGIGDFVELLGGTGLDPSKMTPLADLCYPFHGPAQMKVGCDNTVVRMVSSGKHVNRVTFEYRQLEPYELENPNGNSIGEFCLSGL

[17] = biological target: FAD-linked sulfhydryl oxidase ALR (Homo sapiens, UniProt P55789); test: inhibitors of human ALR sulfhydryl oxidase, dose response, biochemical, H2O2 detection, luminescence, cherry-pick (AID 493248)
Sequence of FAD-linked sulfhydryl oxidase ALR (P55789 whole entry): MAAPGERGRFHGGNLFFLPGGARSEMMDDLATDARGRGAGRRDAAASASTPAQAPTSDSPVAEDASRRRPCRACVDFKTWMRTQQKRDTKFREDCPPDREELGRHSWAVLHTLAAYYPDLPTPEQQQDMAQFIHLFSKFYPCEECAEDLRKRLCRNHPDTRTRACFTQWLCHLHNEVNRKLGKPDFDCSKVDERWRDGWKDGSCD

Sequence of Large T antigen (P03070 whole entry): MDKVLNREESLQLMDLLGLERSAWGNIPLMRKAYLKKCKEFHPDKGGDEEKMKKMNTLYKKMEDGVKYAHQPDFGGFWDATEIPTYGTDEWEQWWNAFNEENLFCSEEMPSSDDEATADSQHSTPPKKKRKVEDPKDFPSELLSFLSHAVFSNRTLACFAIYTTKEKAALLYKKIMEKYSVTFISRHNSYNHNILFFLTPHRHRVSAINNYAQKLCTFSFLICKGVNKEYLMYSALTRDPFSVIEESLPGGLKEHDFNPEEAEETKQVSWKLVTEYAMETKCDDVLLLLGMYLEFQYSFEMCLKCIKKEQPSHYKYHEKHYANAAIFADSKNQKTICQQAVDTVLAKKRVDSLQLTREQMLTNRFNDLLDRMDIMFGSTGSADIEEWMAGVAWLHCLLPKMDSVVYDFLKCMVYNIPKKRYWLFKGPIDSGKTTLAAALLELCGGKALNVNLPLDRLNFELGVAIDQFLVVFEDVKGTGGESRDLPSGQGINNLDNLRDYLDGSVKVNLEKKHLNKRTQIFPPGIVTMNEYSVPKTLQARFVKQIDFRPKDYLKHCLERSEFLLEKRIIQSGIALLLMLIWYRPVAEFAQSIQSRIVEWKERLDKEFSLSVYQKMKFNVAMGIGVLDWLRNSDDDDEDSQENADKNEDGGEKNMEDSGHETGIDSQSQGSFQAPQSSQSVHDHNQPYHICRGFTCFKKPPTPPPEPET
Sequence of Glyceraldehyde-3-phosphate dehydrogenase (P04406 whole entry): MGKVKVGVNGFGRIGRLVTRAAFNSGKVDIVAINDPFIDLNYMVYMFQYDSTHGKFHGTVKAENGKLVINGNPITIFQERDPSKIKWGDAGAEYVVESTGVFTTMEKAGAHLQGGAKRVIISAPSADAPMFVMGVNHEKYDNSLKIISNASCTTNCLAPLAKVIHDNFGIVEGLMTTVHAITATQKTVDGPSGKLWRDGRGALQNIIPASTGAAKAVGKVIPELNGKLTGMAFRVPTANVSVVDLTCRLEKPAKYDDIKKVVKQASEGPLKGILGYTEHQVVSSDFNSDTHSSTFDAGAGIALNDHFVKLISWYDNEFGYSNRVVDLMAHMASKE
Sequence of Genome polyprotein (P29990 2492-3391 limits assumed): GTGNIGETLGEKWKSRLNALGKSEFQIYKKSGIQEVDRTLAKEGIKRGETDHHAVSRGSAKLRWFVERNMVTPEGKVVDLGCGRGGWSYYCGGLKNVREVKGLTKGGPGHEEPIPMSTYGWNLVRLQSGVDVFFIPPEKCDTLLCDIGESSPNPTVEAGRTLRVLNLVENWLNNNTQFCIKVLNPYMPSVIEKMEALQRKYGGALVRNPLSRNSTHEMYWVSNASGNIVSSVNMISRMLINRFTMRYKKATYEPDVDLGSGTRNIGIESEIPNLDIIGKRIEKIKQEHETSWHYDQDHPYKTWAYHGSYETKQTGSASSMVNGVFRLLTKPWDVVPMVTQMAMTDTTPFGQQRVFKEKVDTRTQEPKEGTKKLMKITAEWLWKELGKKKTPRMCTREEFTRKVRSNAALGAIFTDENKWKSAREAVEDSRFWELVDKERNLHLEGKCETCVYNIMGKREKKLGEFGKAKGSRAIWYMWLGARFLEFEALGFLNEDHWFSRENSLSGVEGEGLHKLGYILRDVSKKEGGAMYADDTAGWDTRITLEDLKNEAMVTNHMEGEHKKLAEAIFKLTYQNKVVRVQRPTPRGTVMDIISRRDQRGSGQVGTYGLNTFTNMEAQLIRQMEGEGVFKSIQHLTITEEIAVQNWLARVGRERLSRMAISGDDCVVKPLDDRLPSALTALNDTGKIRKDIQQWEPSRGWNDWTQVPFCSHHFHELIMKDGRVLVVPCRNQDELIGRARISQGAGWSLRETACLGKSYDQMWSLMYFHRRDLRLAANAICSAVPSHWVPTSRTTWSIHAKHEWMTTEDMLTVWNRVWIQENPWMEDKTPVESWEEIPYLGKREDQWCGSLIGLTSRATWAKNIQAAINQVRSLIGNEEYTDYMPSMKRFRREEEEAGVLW
Sequence of Cytochrome P450 3A4 (P08684 whole entry): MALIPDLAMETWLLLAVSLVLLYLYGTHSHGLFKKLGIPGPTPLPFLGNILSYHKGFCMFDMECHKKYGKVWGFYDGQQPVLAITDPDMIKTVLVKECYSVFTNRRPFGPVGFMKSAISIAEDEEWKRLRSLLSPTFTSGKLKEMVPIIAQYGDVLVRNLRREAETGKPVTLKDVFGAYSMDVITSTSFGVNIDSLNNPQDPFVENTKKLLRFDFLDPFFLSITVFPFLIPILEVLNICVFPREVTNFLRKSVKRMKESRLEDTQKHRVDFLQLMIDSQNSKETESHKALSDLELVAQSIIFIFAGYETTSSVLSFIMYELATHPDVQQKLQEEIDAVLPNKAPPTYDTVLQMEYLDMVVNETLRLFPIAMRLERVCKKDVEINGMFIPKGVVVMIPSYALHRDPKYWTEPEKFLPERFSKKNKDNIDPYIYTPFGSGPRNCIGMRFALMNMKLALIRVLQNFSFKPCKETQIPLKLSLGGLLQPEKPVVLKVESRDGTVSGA

## CCN1CCN(C2=C(Cl)C(=O)N(c3cccc(OC)c3)C2=O)CC1
[1]
  IC50: > 50 µM (inconclusive)

## Cc1ccc(-c2nn(-c3ccccc3)cc2CSC(=N)N)cc1
[2]
  CC50: 14.9 µM (active)
[3]
  EC50: > 120 µM (not active)
[4]
  EC50: > 120 µM (not active)
[5]
  EC50: > 120 µM (not active)
[6]
  EC50: 17.1 µM (active)
[7]
  EC50: 17.4 µM (active)
[8]
  IC50: > 20 µM (inactive)
Cytochrome P450 3A4
  AC50: 39.8 µM (inconclusive)

## O=C(CN1CCCCC1)N1CCCc2ccccc21
Cells [9]
  EC50: > 350 µM (not active)
Cells [10]
  EC50: > 350 µM (not active)

## COc1cc(/C=C2\SC(Nc3ccc(Cl)c(C(=O)O)c3)=NC2=O)c(Br)c(Br)c1O
Large T antigen
  IC50: 3.27 µM (active)
[11]
  IC50: 13.9 µM (active)

## COc1ccc(C(CC(=O)O)C(N)=O)cc1 (stereo not given)
[1]
  IC50: > 100 µM (not active)

## COc1ccccc1/C=C1/C(=O)ON=C1C
Genome polyprotein
  IC50: > 100 µM (active)

## Cc1ccc(NC(=O)c2ccc(NCCN)c([N+](=O)[O-])c2)cc1Cl
[2]
  CC50: 24.4 µM (active)
[8]
  IC50: > 20 µM (inactive)

## CC(=O)Nc1nc2ccccc2n1CCOc1ccccc1
[12]
  EC50: 11.3 µM (active)
Streptokinase A
  EC50: > 150 µM (not active)
[6]
  EC50: 15.4 µM (active)
[7]
  EC50: 12.7 µM (active)
Streptococcus
  EC50: > 150 µM (not active)

## c1csc(CCNc2ncnc3sc4c(c23)CCC4)c1
[6]
  EC50: 63.9 µM (active)
[7]
  EC50: 72.7 µM (active)
[13]
  AC50: 1.7 µM (active)
[14]
  AC50: 7.76 µM (active)
[15]
  AC50: 0.988 µM (active)

## CN(C)c1ccc(C=C2SC(=S)N(Cc3ccco3)C2=O)cc1
[16]
  EC50: 3.2 µM (active)

## COc1cc(/C=N/NC(=O)c2cccc(S(=O)(=O)N3CCCC3)c2)ccc1O
Large T antigen
  IC50: 9.24 µM (active)
[17]
  AC50: 1.79 µM (active)

## Cc1cc(N/N=C/c2cccc(Cl)c2)nc(NCc2ccccc2)n1
[6]
  EC50: 35.3 µM (active)
[7]
  EC50: 39.6 µM (active)

## COc1ccc(/C=N/NC(=O)CSCc2ccc([N+](=O)[O-])cc2)cc1OC
[8]
  IC50: > 20 µM (inactive)

## CC/N=c1\scc(C)n1/N=C/c1cc(Br)c(O)c(Br)c1
[2]
  CC50: 13.3 µM (active)
Large T antigen
  IC50: 21.6 µM (active)

## C/C(=N\NC(=O)c1c(Br)c(C)nn1C)c1ccc(NC(=O)C(C)Oc2ccc(Cl)cc2C)cc1 (stereo not given)
[6]
  EC50: 11 µM (active)
[7]
  EC50: 15.1 µM (active)

## Cc1n[nH]c(O)c1C(c1ccc(-c2ccc(Cl)c(C(=O)O)c2)o1)c1c(O)n[nH]c1C
Genome polyprotein
  IC50: > 100 µM (active)

## COc1cc(/C=N/NC(=O)c2cc(C3CC3)[nH]n2)ccc1O
Large T antigen
  IC50: 7.28 µM (active)
[17]
  AC50: 1.74 µM (active)
